According to ChEMBL document CHEMBL1136388, “EDTA bis-(methyl tyrosinate): a chelating peptoid peroxynitrite scavenger” (Bioorg Med Chem Lett, 2003):

Assay: pKa value was determined
Assay type: physicochemical

Compound `COC(=O)C(Cc1ccc(O)cc1)NC(=O)CN(CCN(CC(=O)O)CC(=O)NC(Cc1ccc(O)cc1)C(=O)OC)CC(=O)O` (stereo unspecified) has a pKa of 6.8.
